Measured values from US12606559B2, “JAK inhibitor compounds, methods for synthesizing same and use thereof” (GALDERMA HOLDING SA, priority 2020, dated 2026).
Like-named read-outs stand apart in the source and are kept apart here.

How the values were obtained:
[1] = system: IL-6 induced p-STAT3Y705 in skin; test: In vivo pharmacodynamy model: IL-6 induced Phospho-STAT3, topical; set-up: species or system BALB/c ByJ Rj mice; conditions: topical 1 mM, vehicle PG/EtOH 3/7
[2] = SF logD; type: physicochemical
[3] = pKa; type: physicochemical
[4] = Human skin ex vivo: flux through skin and dermis concentration (Franz cells); type: in vitro ADME; conditions: PG/H2O cream 1 mg/mL
[5] = target: T1, CYP2D6 (Homo sapiens, UniProt P10635); test: CYP2D6 inhibition in human liver microsomes; type: in vitro ADME; conditions: dextromethorphan
T1 construct: assessed in Human pooled liver microsomes of mixed gender; from tissue; host or cells: human pooled liver microsomes
Protocol: After 5 min at 37° C. incubations were started with NADPH and prolonged for 10 min. The test compound was tested up to 30 μM keeping the final concentration of organic solvent was below 0.5%. The final concentration of microsomes was 0.1 mg/ml to ensure linearity during the time of the incubation. The reaction was quenched by adding 3 volume of acetonitrile. After centrifugation the supernatant was analyzed by HPLC/MS/MS for the formation of des-methyldextromethorphane selectively produced by CYP2D6 and 1′hydroxymidazolam or 6β-hydroxytestosterone, selectively produced by CYP3A. IC50 was calculated with Graphpad Prism v.7 comparing the amount of metabolite produced in presence of the test compound with that produced in absence of test item.

[6] = system: Salmonella typhimurium TA98 and TA100; test: Mini Ames assay (TA98 and TA100); type: cell-based; conditions: for AMES: TA98 and TA100, with and without S9; for increase in the mean number of revertants: TA98 and TA 100 with or without metabolic activation
Excerpt: The Ames test in micro-method (in 6-well plates=mini Ames) follows the general principles of the standard Ames's technique. The Ames test used strains of bacteria Salmonella typhimurium that carry mutations in the genes involved in histidine synthesis. These strains are auxotrophic mutants, they require histidine for growth but cannot produce it. The assay was used to observe the ability of the test item to induce reverse mutations allowing the bacteria to grow in a histidine-free medium. The number of bacteria that revert and acquire the wild-type ability to grow in the absence of histidine can be estimated by counting the colonies that develop upon incubation. The use of different strains allows the identification of different mechanisms of gene mutation (TA98 for detection of frameshift mutations and TA100 for detection of base pair substitutions).
In a number of cases, the test item itself is not directly mutagenic but its metabolic derivatives are.
A toxicity assessment was performed on complete nutriment agar plate (with histidine) to define the highest concentration to be used in the genotoxicity assay. Solutions were prepared in 100% DMSO. The first concentration analyzed in the well (6-well plate) was 500 μg per plate followed by 7 serial dilutions (2 times factor of dilution). Each concentration was tested in triplicate on each strain and for each condition of treatment. The viability of the positive and negative controls was analyzed for each strain, in the presence or absence of metabolic activation system, and were compared with historical data to validate the study. If no bacterial toxicity occurred, the highest concentration tested for genotoxicity was […]. If toxicity occurred, a viability above than 70% defined the highest concentration tested.
The genotoxicity assessment was performed on minimal agar plate (without histidine) following the same dilution procedure as for the cytotoxicity assessment. DMSO and phosphate buffer controls were used as negative controls. 2-Nitrofluorene (2NF), 2-Aminoanthracene (2AA) and 4-Nitro-1.2 phenylenediamine (DANB) were selected as positive controls.
Test items, positive and negative controls were incubated with the 2 bacterial strains. After 48 h incubation at 37° C. with and without metabolic activation (S9), the prototrophic mutant colonies that had grown on the plates were counted. The results were expressed as the mean number of revertants for each condition tested (3 replicates each) and for each concentration of the test item and controls. Induction ration, corresponding to the ratio of revertants in presence of test item versus spontaneous revertant, was determined for each concentration.

[7] = target: T2, hERG (Human Ether-a-go-go Related Gene) channel in CHO-K1 cells (Homo sapiens, UniProt Q12809); test: In vitro hERG channel, whole cell patch clamp; type: cell-based; conditions: up to 30 μM
T2 construct: expressed in transfected cells; host or cells: CHO-K1
Protocol: Blockade of the delayed rectifier potassium current (IKr) encoded by hERG gene (human ether a go go-related gene) can lead to QT interval prolongation and is therefore investigated as part of the cardiac risk assessment. This channel is critical for the repolarisation of the cardiac membrane. The effect of the compounds on IKr was assessed by whole cell patch clamp in stably transfected CHO-K1 cells expressing hERG (Human Ether-a-go-go Related Gene) channel following superfusion at different concentrations up to 30 μM.

[8] = target: T3, acetylcholinesterase (h) (Homo sapiens, UniProt P22303); test: CEREP Safety Screen-44: acetylcholinesterase (h); type: biochemical
T3 construct: CEREP
Protocol: An in vitro pharmacology assay was conducted to assess the capability of the compounds to interact with different pharmacological targets when tested at 10 μM in different binding and enzyme/uptake assays. The included targets are indicative of potential effects in major organs and drug-drug interactions.
Compound binding was calculated as a % inhibition of the binding of a radioactively labelled ligand specific for each target. […] Results showing an inhibition or stimulation higher than 50% are considered to represent significant effects of the test compounds.

[9] = Plasma exposure, dermis concentration and skin/plasma ratio compared to Ruxolitinib; conditions: in vivo
[10] = BALB/c ByJ Rj, in vivo
[11] = Systemic level in PD/IL6 mouse topical dose response; conditions: topical 10 mM, PG/Acetone/Transcutol

T2 sequence (Q12809 whole entry): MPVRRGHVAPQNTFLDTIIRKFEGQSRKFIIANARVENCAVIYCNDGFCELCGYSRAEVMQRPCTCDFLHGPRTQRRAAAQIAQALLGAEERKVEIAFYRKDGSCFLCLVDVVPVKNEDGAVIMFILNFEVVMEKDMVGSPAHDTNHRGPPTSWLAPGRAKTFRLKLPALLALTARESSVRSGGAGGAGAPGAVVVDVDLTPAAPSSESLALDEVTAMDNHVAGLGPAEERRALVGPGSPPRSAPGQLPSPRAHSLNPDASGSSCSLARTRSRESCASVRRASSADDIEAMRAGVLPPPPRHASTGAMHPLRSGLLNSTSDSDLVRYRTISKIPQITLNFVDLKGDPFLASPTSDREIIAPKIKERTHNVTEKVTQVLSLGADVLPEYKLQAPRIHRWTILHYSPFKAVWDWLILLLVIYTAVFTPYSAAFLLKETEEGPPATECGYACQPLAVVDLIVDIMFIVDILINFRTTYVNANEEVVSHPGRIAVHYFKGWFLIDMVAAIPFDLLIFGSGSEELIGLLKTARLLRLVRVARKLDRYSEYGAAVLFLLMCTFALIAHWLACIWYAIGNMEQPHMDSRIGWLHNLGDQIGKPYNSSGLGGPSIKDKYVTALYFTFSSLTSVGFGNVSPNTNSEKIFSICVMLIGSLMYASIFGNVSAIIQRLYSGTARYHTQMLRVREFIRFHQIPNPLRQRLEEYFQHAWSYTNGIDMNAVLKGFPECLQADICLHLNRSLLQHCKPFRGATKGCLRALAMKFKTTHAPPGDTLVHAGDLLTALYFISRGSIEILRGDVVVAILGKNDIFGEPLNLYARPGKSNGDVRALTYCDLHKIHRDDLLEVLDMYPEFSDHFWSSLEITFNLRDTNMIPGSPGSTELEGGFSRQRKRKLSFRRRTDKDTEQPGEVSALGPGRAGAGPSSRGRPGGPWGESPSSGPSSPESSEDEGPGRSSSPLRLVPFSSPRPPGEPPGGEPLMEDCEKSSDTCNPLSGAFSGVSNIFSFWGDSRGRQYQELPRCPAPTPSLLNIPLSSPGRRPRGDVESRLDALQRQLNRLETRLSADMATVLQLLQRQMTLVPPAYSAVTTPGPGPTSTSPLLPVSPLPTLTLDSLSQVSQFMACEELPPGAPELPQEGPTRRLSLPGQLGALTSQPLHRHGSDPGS
T1 sequence (P10635 whole entry): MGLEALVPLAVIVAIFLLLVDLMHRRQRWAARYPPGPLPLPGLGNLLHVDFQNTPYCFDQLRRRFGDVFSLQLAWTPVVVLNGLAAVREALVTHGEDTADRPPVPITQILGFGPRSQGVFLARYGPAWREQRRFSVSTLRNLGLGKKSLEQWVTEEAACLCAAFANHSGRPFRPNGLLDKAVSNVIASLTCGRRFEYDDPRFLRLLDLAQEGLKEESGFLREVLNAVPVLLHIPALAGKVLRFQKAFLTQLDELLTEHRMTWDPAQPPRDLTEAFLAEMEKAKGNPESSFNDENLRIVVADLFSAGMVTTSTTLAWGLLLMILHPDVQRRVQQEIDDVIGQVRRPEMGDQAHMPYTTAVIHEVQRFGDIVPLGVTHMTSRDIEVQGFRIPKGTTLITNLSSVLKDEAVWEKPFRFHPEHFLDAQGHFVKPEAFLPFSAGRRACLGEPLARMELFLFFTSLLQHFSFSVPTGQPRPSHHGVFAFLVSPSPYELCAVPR
T3 sequence (P22303 32-614): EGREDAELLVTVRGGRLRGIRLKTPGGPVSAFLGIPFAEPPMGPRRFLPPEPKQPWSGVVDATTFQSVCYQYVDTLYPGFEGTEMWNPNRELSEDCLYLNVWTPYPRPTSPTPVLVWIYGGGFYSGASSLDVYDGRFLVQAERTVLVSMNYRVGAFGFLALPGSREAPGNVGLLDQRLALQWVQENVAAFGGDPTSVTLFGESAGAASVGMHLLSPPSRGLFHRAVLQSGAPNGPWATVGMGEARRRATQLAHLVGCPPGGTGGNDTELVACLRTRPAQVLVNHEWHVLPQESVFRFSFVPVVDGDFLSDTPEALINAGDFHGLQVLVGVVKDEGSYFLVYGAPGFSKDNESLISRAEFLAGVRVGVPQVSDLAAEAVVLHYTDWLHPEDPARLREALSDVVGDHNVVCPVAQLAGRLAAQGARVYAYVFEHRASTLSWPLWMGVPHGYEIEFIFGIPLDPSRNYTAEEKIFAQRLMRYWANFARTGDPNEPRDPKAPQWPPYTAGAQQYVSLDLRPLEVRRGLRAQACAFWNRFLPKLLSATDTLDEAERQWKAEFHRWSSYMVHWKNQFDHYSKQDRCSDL

CC1(C)CCN(C(=O)C[C@H]2C[C@@H](Nc3c(C#N)cnc4[nH]ccc34)C2)CC1 [Compound A, 4-(((cis)-3-(2-(4,4-dimethylpiperidin-1-yl)-2-oxoethyl)cyclobutyl)amino)-1H-pyrrolo[2,3-b]pyridine-5-carbonitrile]
PD/IL6 mouse top @1 mM % inh vs vehicle [1]: 66% | logD [2]: 3.7 | pKa [3]: 3.7 | dermis concentration [4]: 0.25 µM | measured flux 6-24 hr [4]: 2.5 ng/cm^2/hr | IC50 [5]: 25 µM | AMES [6]: Neg/Neg | increase in the mean number of revertants [6]: did not induce a biologically significant increase | IC50 [7]: > 30 µM | Safety panel (Cerep): target with > 50% inh @ 10 microM [8]: acetylcholinesterase | dermis concentration, times higher compared to Ruxolitinib [9]: 2.4 | plasma exposure, times lower compared to Ruxolitinib [9]: 2.9 | skin/plasma ratio, times higher compared to Ruxolitinib [9]: 7 | PD/IL6 mouse top DR 0.01-10 mM: Systemic level @ 10 mM - 2 hrs [10]: 9.8 nM

CC1CCN(C(=O)C[C@H]2C[C@@H](Nc3c(C#N)cnc4[nH]ccc34)C2)CC1 [Compound B, 4-(((cis)-3-(2-(4-Methylpiperidin-1-yl)-2-oxoethyl)cyclobutyl)amino)-1H-pyrrolo[2,3-b]pyridine-5-carbonitrile]
PD/IL6 mouse top @1 mM % inh vs vehicle [1]: 81%/ND Tofa @ 10 mM | logD [2]: 3.1 | dermis concentration [4]: 0.9 µM | measured flux 6-24 hr [4]: 2.4 ng/cm^2/hr | IC50 [5]: 25 µM | AMES [6]: Neg/Neg | increase in the mean number of revertants [6]: did not induce a biologically significant increase | IC50 [7]: > 30 µM | PD/IL6 mouse top DR 0.01-10 mM: Systemic level @ 10 mM - 2 hrs [11]: 9.8 nM
